Source: patent US20120245184A1 (Aderans Research Institute, Inc., priority 2006, published 2012)
Where a name gives a salt, the structure may show the parent alone.

Legend:
[1] = system: sonic hedgehog pathway; test: Human hedgehog reporter assay Daoy-GliLuc (DGL); format: cell-based; conditions: Daoy human medulloblastoma cells, gli-luciferase reporter
From the text: (§1) Mouse (TM3: mouse Leydig cells; S12: mouse embryonic mesenchymal cells) and human (Daoy: human medulloblastoma cell; HepM: human embryonic palatal mesenchymal cell) cell lines are used to screen small molecules for their ability to modulate the activity of the sonic hedgehog pathway (Table 1, Table 2, and Table 3). Stable hedgehog pathway reporter cell lines are established by specific antibiotic selection following transfection of a reporter plasmid containing a luciferase gene located directly downstream from the gli promoter. Consequently, any observable changes in cellular luciferase activity may be attributed to changes in sonic hedgehog pathway activity in mouse and human cells, respectively, since gli is the major by-product of this pathway. To calculate activity, we generate an eleven point dose curve for each compound using 1:3 dilutions in 96 well assay plates. Each plate tested also contains low and high control to establish maximal pathway activation so to establish/compare a percentage activation of each tested compound (AMAX) on respective plates.
(§2) Stable hedgehog pathway reporter cell lines are established following specific antibiotic selection following transfection of a reporter plasmid
(§3) In short, typically cells are plated in MicroTiter-plates at 10,000-20,000 cells per well, in growth media (containing 10%-20% FBS). After 48-72 hrs (HGL and DGL respectively) the media in the assay plates is switched to low-serum containing media (0.5% FBS). At that time compounds are added (at 1-5 μM) to the assay plates, in the presence or absence of hedgehog protein (octyl-modified version; 1-5 ng/ml). After another 24 hrs of incubation, the media from the assay plates is discarded and replaced with luciferase assay-mix. Subsequently, plates are incubated at RT for ˜15-30 mins and then read in a luminometer. [note: addition of the Hedgehog protein, although not critical, will sensitize the assay allowing the identification of weak actives].

[2] = system: sonic hedgehog pathway; test: Hedgehog reporter assay (gli-luciferase) in S12 cells; format: cell-based; conditions: S12 mouse embryonic mesenchymal cells, read-out: Mouse S12 Avg. EC50
From the text: as §1, with “respective plates. Also we calculate EC50 values, or a concentration where the pathway will be exactly 50% activated, for each tested compound to determine potency. In these cell lines, compounds that register >20% AMAX values are considered active.” for “respective plates.”
as §2, §3

[3] = system: sonic hedgehog pathway; test: Hedgehog reporter assay (gli-luciferase) in TM3 cells; format: cell-based, mouse; conditions: TM3 mouse Leydig cells, gli-luciferase reporter; read-out: TM3 Avg. EC50
From the text: as §1, §2, §3

[4] = system: sonic hedgehog pathway; test: Human hedgehog reporter assay HEPM-GliLuc (HGL); format: cell-based; conditions: HepM human embryonic palatal mesenchymal cells, gli-luciferase reporter; read-out: HEPM Avg. EC50
From the text: as §1, §2, §3

[5] = read-out: Human Daoy (Gli-Luc) Avg. EC50

EC50 [1, 5] [nM] | EC50 [3] [nM] | EC50 ([1]; read-out: Daoy Avg. EC50) [nM] | SMILES | EC50 [2] [nM] | EC50 [4] [nM]
< 50 |  |  | CN[C@H]1CC[C@@H](N(Cc2cc(OC)cc(-c3ccncc3)c2)C(=O)C2=C(Cl)c3c(F)ccc(F)c3C2)CC1 [Compound 394, 3-Chloro-4,7-difluoro-benzo[b]thiophene-2-carboxylic acid(3-methoxy-5-pyridin-4-yl-benzyl)-(4-methylamino-cyclohexyl)-amide bis(trifluoroacetate)] | < 50 | 
< 50 |  |  | CN[C@H]1CC[C@@H](N(Cc2cc(-c3ccncc3F)ccc2OC)C(=O)c2sc3c(F)ccc(F)c3c2Cl)CC1 [Compound 386, 3-Chloro-4,7-difluoro-benzo[b]thiophene-2-carboxylic acid[5-(3-fluoro-pyridin-4-yl)-2-methoxy-benzyl]-(4-methylamino-cyclohexyl)-amide] | < 50 | 
< 50 |  |  | CN[C@H]1CC[C@H](N(Cc2cc(-c3cccnc3F)ccc2OC)C(=O)c2sc3cccc(F)c3c2Cl)CC1 [Compound 381] | < 50 | 
< 50 |  |  | CNC1CCC(N(Cc2cc(-c3ccnc(F)c3)ccc2OC)C(=O)c2sc3c(F)ccc(F)c3c2Cl)CC1 (centres unmarked) [Compound 384, 3-Chloro-4,7-difluoro-benzo[b]thiophene-2-carboxylic acid[5-(2-fluoro-pyridin-4-yl)-2-methoxy-benzyl]-(4-methylamino-cyclohexyl)-amide] | < 50 | 
 | < 50 | < 50 | CNC1CCC(N(Cc2cc(-c3cnccn3)ccc2OC)C(=O)c2sc3c(F)ccc(F)c3c2Cl)CC1 (centres unmarked) [Compound 344 (R14), 3-Chloro-4,7-difluoro-benzo[b]thiophene-2-carboxylic acid(2-methoxy-5-pyrazin-2-yl-benzyl)-(4-methylamino-cyclohexyl)-amide dihydrochloride] |  | < 50
 | < 50 | < 50 | CCOc1ccc(-c2cccc(C#N)c2)cc1CN(C(=O)c1sc2ccccc2c1Cl)C1CCC(NC)CC1 (centres unmarked) [Compound 328, 3-Chloro-benzo[b]thiophene-2-carboxylic acid (3′-cyano-4-ethoxy-biphenyl-3-ylmethyl)-(4-methylamino-cyclohexyl)-amide hydrochloride] |  | 50 to 250
 | < 50 | < 50 | CCOc1ccc(-c2ccc(C(C)=O)cc2)cc1CN(C(=O)c1sc2ccccc2c1Cl)C1CCC(NC)CC1 (centres unmarked) [Compound 311, 3-Chloro-benzo[b]thiophene-2-carboxylic acid (4′-acetyl-4-ethoxy-biphenyl-3-ylmethyl)-(4-methylamino-cyclohexyl)-amide hydrochloride] |  | 50 to 250
 | < 50 | < 50 | CNC1CCC(N(Cc2cc(-c3cncnc3)ccc2OC)C(=O)c2sc3c(F)ccc(F)c3c2Cl)CC1 (centres unmarked) [Compound 343 (R15), 3-Chloro-4,7-difluoro-benzo[b]thiophene-2-carboxylic acid(2-methoxy-5-pyrimidin-5-yl-benzyl)-(4-methylamino-cyclohexyl)-amide dihydrochloride] |  | < 50
 | < 50 | < 50 | CN[C@H]1CC[C@@H](N(Cc2cc(-c3ccnc(N(C)C)c3)ccc2OC)C(=O)c2sc3c(C)ccc(C)c3c2Cl)CC1 [Compound 358, 3-Chloro-4,7-difluoro-benzo[b]thiophene-2-carboxylic acid[5-(2-dimethylamino-pyridin-4-yl)-2-methoxy-benzyl]-(4-methylamino-cyclohexyl)-amide dihydrochloride] |  | < 50
 | < 50 | < 50 | CN[C@H]1CC[C@@H](N(Cc2cc(-c3ccnc(C)c3)ccc2OC)C(=O)C2=C(Cl)c3c(F)ccc(C)c3C2)CC1 [Compound 345, 3-Chloro-4,7-difluoro-benzo[b]thiophene-2-carboxylic acid[2-methoxy-5-(2-methyl-pyridin-4-yl)-benzyl]-(4-methylamino-cyclohexyl)-amide dihydrochloride] |  | < 50
 | 250 to 1000 | < 50 | CCOc1ccc(-c2cnc(N)nc2)cc1CN(C(=O)c1sc2ccccc2c1Cl)[C@H]1CC[C@H](NC)CC1 [Compound 325, 3-Chloro-benzo[b]thiophene-2-carboxylic acid[5-(2-amino-pyrimidin-5-yl)-2-ethoxy-benzyl]-(4-methylamino-cyclohexyl)-amide dihydrochloride] |  | 50 to 250
 | < 50 | < 50 | CNC1CCC(N(Cc2cc(-c3ccc(OC)cc3)ccc2OC)C(=O)c2sc3ccccc3c2Cl)CC1 (centres unmarked) [Compound 305, 3-Chloro-benzo[b]thiophene-2-carboxylic acid (4,4′-dimethoxy-biphenyl-3-ylmethyl)-(4-methylamino-cyclohexyl)-amide hydrochloride] |  | 250 to 1000
 | < 50 | < 50 | CNC1CCC(N(Cc2cc(-c3cc(C)cc(C)c3)ccc2OC)C(=O)C2=C(Cl)c3c(C)ccc(F)c3C2)CC1 (centres unmarked) [Compound 350, 3-Chloro-4,7-difluoro-benzo[b]thiophene-2-carboxylic acid[5-(2,6-dimethyl-pyridin-4-yl)-2-methoxy-benzyl]-(4-methylamino-cyclohexyl)-amide dihydrochloride] |  | 50 to 250

SMILES | EC50 [1, 5] [nM] | EC50 [3] [nM] | EC50 ([1]; read-out: Daoy Avg. EC50) [nM] | EC50 [2] [nM] | EC50 [4] [nM]
CNC1CCC(N(Cc2cc(-c3ccc(C(=O)C(F)(F)F)cc3)ccc2OC)C(=O)c2sc3c(F)ccc(F)c3c2Cl)CC1 (centres unmarked) [Compound 349, 3-Chloro-4,7-difluoro-benzo[b]thiophene-2-carboxylic acid[4-methoxy-4′-(2,2,2-trifluoro-acetyl)-biphenyl-3-ylmethyl]-(4-methylamino-cyclohexyl)-amide trifluoroacetate] |  | < 50 | < 50 |  | < 50
CNC1CCC(N(Cc2cc(-c3ccc(CCl)cc3)ccc2OC)C(=O)c2sc3ccccc3c2Cl)CC1 (centres unmarked) [Compound 340, 3-Chloro-benzo[b]thiophene-2-carboxylic acid (4′-chloromethyl-4-methoxy-biphenyl-3-ylmethyl)-(4-methylamino-cyclohexyl)-amide hydrochloride] |  | < 50 | < 50 |  | < 50
CNC1CCC(N(Cc2cc(-c3cnccn3)ccc2OC)C(=O)c2sc3ccccc3c2Cl)CC1 (centres unmarked) [Compound 330 (R22), 3-Chloro-benzo[b]thiophene-2-carboxylic acid (2-methoxy-5-pyrazin-2-yl-benzyl)-(4-methylamino-cyclohexyl)-amide bis(trifluoroacetate)] |  | 50 to 250 | < 50 |  | 50 to 250
CNC(=O)c1cc(-c2ccc(OC)c(CN(C(=O)c3sc4c(F)ccc(F)c4c3Cl)C3CCC(NC)CC3)c2)ccn1 (centres unmarked) [356 (R21), 4-(3-{[(3-Chloro-4,7-difluoro-benzo[b]thiophene-2-carbonyl)-(4-methylamino-cyclohexyl)-amino]-methyl}-4-methoxy-phenyl)-pyridine-2-carboxylic acid methylamide dihydrochloride] |  | < 50 | < 50 |  | < 50
CNC1CCC(N(Cc2cc(-c3ccc(N(C)C=O)cc3)ccc2OC)C(=O)c2sc3cccc(F)c3c2Cl)CC1 (centres unmarked) [Compound 347, 3-Chloro-4-fluoro-benzo[b]thiophene-2-carboxylic acid[4′-(formyl-methyl-amino)-4-methoxy-biphenyl-3-ylmethyl]-(4-methylamino-cyclohexyl)-amide trifluoroacetate] |  | < 50 | < 50 |  | < 50
CNC1CCC(N(Cc2cc(-c3cncnc3)ccc2OC)C(=O)c2sc3ccccc3c2Cl)CC1 (centres unmarked) [Compound 324 (R20), 3-Chloro-benzo[b]thiophene-2-carboxylic acid (2-methoxy-5-pyrimidin-5-yl-benzyl)-(4-methylamino-cyclohexyl)-amide dihydrochloride] |  | 50 to 250 | < 50 |  | 50 to 250
CCOc1ccc(-c2cncnc2)cc1CN(C(=O)c1sc2ccccc2c1Cl)C1CCC(NC)CC1 (centres unmarked) [Compound 326, 3-Chloro-benzo[b]thiophene-2-carboxylic acid (2-ethoxy-5-pyrimidin-5-yl-benzyl)-(4-methylamino-cyclohexyl)-amide dihydrochloride] |  | 50 to 250 | < 50 |  | 50 to 250
